Test results: patent US4489091A, “Antilipemic and anti-inflammatory compositions containing sulfonate derivatives” (Taiho Pharmaceutical Company Limited, priority 1980, dated 1984)
Where two headings read alike, the source gives them in different places.

Columns and labels:
cholesterol = assay: Antilipemic effect: percent total cholesterol inhibition in plasma of rats given an olive oil-cholesterol mixture; type: in vivo, male Wistar rats; details: read-out: Anti-lipemic effect, CS (percent cholesterol inhibition)
Summary of the method: (§1)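 Male Wistar rats, seven weeks old, 200 to 220 g, 5 per group, dosed orally at 100 or 200 mg/kg in olive oil-cholesterol mixture (15% cholesterol) at 10 ml/kg. Plasma triglycerides measured at 2 hours, total cholesterol at 8 hours, by enzymatic kits; percent inhibition calculated relative to vehicle control and untreated normal groups.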

triglycerides = assay: Antilipemic effect: percent triglycerides inhibition in plasma of rats given an olive oil-cholesterol mixture; type: in vivo, male Wistar rats; details: for inhibition in vivo at 100 mg/kg: read-out: Anti-lipemic effect, TG (percent triglycerides inhibition); for inhibition in vivo at 200 mg/kg: oral 200 mg/kg (asterisked values), read-out: Anti-lipemic effect, TG (percent triglycerides inhibition), asterisked; for TG (percent triglycerides inhibition), Table 3: dose not given
Summary of the method: as §1

Acute toxicity = details: rat, in vivo
Excerpt: Six-week-old male Wistar rats weighing 180 to 200 g are used, 5 rats in each group. Each compound of the invention is suspended in a 30% aqueous solution of polyethylene glycol 6000 and orally given to the rat at the dosage shown in Table 2. The animals are checked for poisoning, body weight and survival to determine the LD50 value.

esterase = assay: Esterase inhibiting activity; type: biochemical; details: rat liver microsome esterase, methyl butyrate substrate, pH 8.0, 37° C., 60 minutes; read-out: IC50 for esterases
Experimental: A 10 micromole quantity of methyl butyrate in a 50% ethanol solution is added as a substrate to a specified amount of buffer solution containing 0.1 mole of trishydrochloric acid (pH 8.0). To the mixture is further added a 50% ethanol solution of the compound of the invention, immediately followed by addition of an esterase solution prepared from a purified microsome fraction of the liver of a rat (adjusted to hydrolyze 9 micromoles of methyl butyrate at 37° C. in one hour) as an enzyme solution. The mixture is reacted at 37° C. for 60 minutes.
After the reaction, alkaline hydroxylamine is added to the mixture to form a hydroxamic acid derivative of methyl butyrate, and a ferric salt is added to the derivative. The resulting red color is colorimetrically determined (at a wavelength of 540 nm) to determine the amount of remaining methyl butyrate. The esterase inhibiting ratios of the present compound at least at three concentrations are plotted as ordinate, and the logarithms of the concentrations as abscissa to obtain a line, which gives the 50% inhibition concentration (IC50).

chymotripsin = chymotripsin (Bos taurus, UniProt P00766); assay: Chymotripsin inhibiting activity; type: biochemical; details: 0.5 h; compound 1×10^-4 mole, ATEE substrate, pH 8.0, 37° C.; read-out: Percent chymotripsin inhibition
Experimental: Chymotripsin (0.1 unit) serving as an enzyme solution is added to a specified quantity of buffer solution containing 0.1 mole of trishydrochloric acid (pH 8.0). To the mixture is further added a 50% ethanol solution of the compound of the invention so that the resulting mixture contains the compound in a concentration of 1×10^-4 mole. The mixture is reacted at 37° C. for 20 minutes.
On completion of the reaction, 10 micromoles of N-acetyl-L-thyrosine ethyl ester (ATEE) serving as a substrate is added to the mixture, and the resulting mixture is reacted at 37° C. for 30 minutes.
After the completion of the reaction, the amount of remaining ATEE is determined by the same hydroxamic acid method as above. The percent chymotripsin inhibition is given by [formula] wherein A is the amount of hydrolyzed esters in the reaction system not containing the compound of the invention, and B is the amount of hydrolyzed esters in the reaction system containing the present compound.

[1] = oral 100 mg/kg, plasma 8 hours after dosing, Wistar rat
[2] = oral 100 mg/kg, plasma 2 hours after dosing, Wistar rat
[3] = oral, six-week-old male Wistar rats, suspended in 30% aqueous polyethylene glycol 6000, read-out: LD50
[4] = plasma 2 hours after dosing, Wistar rat

Row | SMILES | IC50 (esterase) | inhibition at 100 µM (chymotripsin) | LD50 (Acute toxicity; po) | further results
1 | CCCC(=O)COS(=O)(=O)CC [Compound 1, 2-oxopentylethane sulfonate] | 12000 nM | – | – | inhibition in vivo at 100 mg/kg (cholesterol; [1]): 89%; inhibition in vivo at 100 mg/kg (triglycerides; [2]): 92%; LD50 (Acute toxicity; [3]): > 1000 mg/kg
2 | CCCC(=O)COS(=O)(=O)c1ccc2ccccc2c1 [Compound 5] | 3600 nM | 17% | > 2500 mg/kg | inhibition in vivo at 100 mg/kg (cholesterol; [1]): 73%; inhibition in vivo at 100 mg/kg (triglycerides; [2]): 86%
3 | CCCCCC(=O)COS(=O)(=O)c1ccccc1 [Compound 8] | 72 nM | 100% | > 2000 mg/kg | inhibition in vivo at 100 mg/kg (cholesterol; [1]): 60%; inhibition in vivo at 100 mg/kg (triglycerides; [2]): 87%
4 | CCCCCCC(=O)COS(=O)(=O)c1ccccc1 [Compound 9] | 68 nM | 96% | > 3000 mg/kg | inhibition in vivo at 100 mg/kg (cholesterol; [1]): 62%; inhibition in vivo at 100 mg/kg (triglycerides; [2]): 88%
5 | CCCCCCCCCC(=O)COS(=O)(=O)c1ccccc1 [Compound 10] | 7.6 nM | 14% | – | inhibition in vivo at 100 mg/kg (cholesterol; Rattus norvegicus, po, 8 h): 61%; inhibition in vivo at 100 mg/kg (triglycerides; Rattus norvegicus, po, 2 h): 80%; LD50 (Acute toxicity; [3]): > 3000 mg/kg
6 | Cc1ccc(S(=O)(=O)OCC(=O)CCCCCCC(C)C)cc1 [Compound 27] | 670 nM | 17% | > 3000 mg/kg | inhibition in vivo at 200 mg/kg (triglycerides; [4]): 59%
7 | C=CCCCCCCCCC(=O)COS(=O)(=O)c1ccc(C)cc1 [Compound 28] | 230 nM | 15% | > 3000 mg/kg | inhibition in vivo at 200 mg/kg (triglycerides; [4]): 61%
8 | CCCCCCCCCC(=O)COS(=O)(=O)c1ccc(OC)cc1 [Compound 38] | 100 nM | 45% | > 4000 mg/kg | inhibition in vivo at 200 mg/kg (triglycerides; [4]): 67%
9 | CCCCCCCCCCCC(=O)COS(=O)(=O)c1ccc(O)cc1 [Compound 62] | 29 nM | 93% | > 3000 mg/kg | inhibition in vivo at 200 mg/kg (triglycerides; [4]): 72%
10 | CCCCCC(=O)COS(=O)(=O)c1ccc(Cl)cc1 [Compound 66] | 2600 nM | 100% | – | inhibition in vivo at 100 mg/kg (triglycerides; [2]): 88%
11 | CCCCCCCCCCC(=O)COS(=O)(=O)c1c(C)cc(C)cc1C [Compound 80] | 0.032 nM | 55% | > 4000 mg/kg | inhibition in vivo at 200 mg/kg (triglycerides; [4]): 63%
12 | CCCCCC(=O)COS(=O)(=O)c1c(C)c(C)cc(C)c1C [Compound 90] | 2.6 nM | 13% | > 3000 mg/kg | inhibition in vivo at 200 mg/kg (triglycerides; [4]): 59%
13 | C=CCCCCCCCCC(=O)COS(=O)(=O)c1c(C)cc(C)c(C)c1C [Compound 101] | 30 nM | 23% | > 4000 mg/kg | inhibition in vivo at 200 mg/kg (triglycerides; [4]): 54%
14 | CCOc1ccc(S(=O)(=O)OCC(=O)CCC(C)CC)cc1 (stereo not shown) [Compound 143] | 2000 nM | 79% | > 4000 mg/kg | inhibition in vivo at 200 mg/kg (triglycerides; [4]): 62%
15 | CCC(CC)CCC(=O)COS(=O)(=O)c1c(C)cc(C)cc1C [Compound 160] | – | – | > 4000 mg/kg | inhibition in vivo at 100 mg/kg (cholesterol; [1]): 40%; inhibition in vivo at 100 mg/kg (triglycerides; [2]): 42%
16 | Cc1cc(C)c(S(=O)(=O)OCC(=O)CCCC(C)C)c(C)c1 [Compound 161] | – | – | > 3000 mg/kg | inhibition in vivo at 100 mg/kg (cholesterol; [1]): 56%; inhibition in vivo at 100 mg/kg (triglycerides; [2]): 51%
17 | O=C(COS(=O)(=O)c1ccccc1)C1CCCCC1 [Compound 163] | 1600 nM | 13% | – | –
18 | O=C(CCC1CCCCC1)COS(=O)(=O)c1ccccc1 [Compound 164, 2-oxo-4-cyclohexyl-butylbenzenesulfonate] | 2200 nM | 100% | – | TG (percent triglycerides inhibition), Table 3 (triglycerides): 98%

Row | SMILES | IC50 (esterase) | inhibition at 100 µM (chymotripsin) | LD50 (Acute toxicity; po) | further results
19 | Cc1ccc(S(=O)(=O)OCC(=O)CC2CCCC2)cc1 [Compound 165] | 4400 nM | 90% | – | –
20 | Cc1ccc(S(=O)(=O)OCC(=O)CC2CCCCC2)cc1 [Compound 166] | 3500 nM | 98% | – | –
21 | Cc1ccc(S(=O)(=O)OCC(=O)CCC2CCCCC2)cc1 [Compound 167] | 3100 nM | 100% | – | TG (percent triglycerides inhibition), Table 3 (triglycerides): 53%
22 | O=C(COS(=O)(=O)c1ccc(O)cc1)CC1CCCCC1 [Compound 169] | 800 nM | – | – | –
23 | Cc1cc(C)c(S(=O)(=O)OCC(=O)C2CCCCC2)c(C)c1 [Compound 176] | 800 nM | – | – | –
24 | Cc1cc(C)c(S(=O)(=O)OCC(=O)CC2CCCCC2)c(C)c1 [Compound 177] | 200 nM | 10% | – | –
25 | O=C(COS(=O)(=O)c1ccc(Cl)cc1)C1CCCCC1 [Compound 179] | 1500 nM | 32% | – | –
26 | Cc1cc(C)c(S(=O)(=O)OCC(=O)C2CCOCC2)c(C)c1 [Compound 186] | 32000 nM | – | – | –
27 | Cc1ccc(S(=O)(=O)OCC(=O)CCc2ccccc2)cc1 [Compound 187] | 14000 nM | 100% | – | TG (percent triglycerides inhibition), Table 3 (triglycerides): 94%
28 | O=C(CCc1ccccc1)COS(=O)(=O)c1ccc(Cl)cc1 [Compound 188] | 25000 nM | 100% | – | TG (percent triglycerides inhibition), Table 3 (triglycerides): 95%
29 | O=C(CCCCl)COS(=O)(=O)c1ccccc1 [Compound 193, 2-oxo-5-chloro-n-pentyl-benzene sulfonate] | 820 nM | 46.8% | – | –
30 | COCCCC(=O)COS(=O)(=O)c1ccccc1 [Compound 194] | 2400 nM | 3.2% | – | –
31 | CC(=O)OCCCC(=O)COS(=O)(=O)c1ccccc1 [Compound 195] | 26000 nM | 22.2% | – | TG (percent triglycerides inhibition), Table 3 (triglycerides): 62%
32 | COC(=O)CCCC(=O)COS(=O)(=O)c1ccccc1 [Compound 196] | 6800 nM | 65.3% | – | TG (percent triglycerides inhibition), Table 3 (triglycerides): 77.9%
33 | O=C(CCCCCNC(=O)OCc1ccccc1)COS(=O)(=O)c1ccccc1 [Compound 197] | 30000 nM | 47% | – | –
34 | CCOc1ccc(S(=O)(=O)OCC(=O)CCCC(=O)OC)cc1 [Compound 201, 2-oxo-5-methoxycarbonyl-n-pentyl-p-ethoxybenzene sulfonate] | 170000 nM | 33% | – | –
35 | COCCCC(=O)COS(=O)(=O)c1c(C)cc(C)cc1C [Compound 205] | 1500 nM | 10% | – | –
